Consider one compound from patent publication US20100184807A1, “Methods to inhibit tumor cell growth by using proton pump inhibitors” (Bio-Quant, Inc., priority 2008, published 2010).

What all share (experiment): MTT tumor cell growth assay
Common to all, as to format: cell-based

For experiment [1], the system named is A549 (lung cancer). Particulars: A549 cells, lansoprazole 1-100 μM, 48 hours.
Experiment [2] deals with CCRF-CEM (leukemia). To be noted: CCRF-CEM cells, lansoprazole 1-100 μM, 48 hours.
Experiment [3] concerns H322M. To be noted: H322M cells, lansoprazole 1-100 μM, 48 hours.
In experiment [4] the test system is HT29 (colon cancer). To be noted: HT29 cells, lansoprazole 1-100 μM, 48 hours.
The test system of experiment [5] is HUT78 (lymphoma). To be noted: HUT78 cells, lansoprazole 1-100 μM, 48 hours.
For experiment [6], the system named is J45-01 (leukemia). To be noted: J45-01 cells, lansoprazole 1-100 μM, 48 hours.
In experiment [7] the test system is MOLT3 (leukemia). Particulars: MOLT3 cells, lansoprazole 1-100 μM, 48 hours.
Experiment [8] has as its system OVCAR4 (ovarian cancer). Particulars: OVCAR4 cells, lansoprazole 1-100 μM, 48 hours.
The subject of experiment [9] is RXF393 (kidney cancer). To be noted: RXF393 cells, lansoprazole 1-100 μM, 48 hours.
Experiment [10] concerns GDM-1 (leukemia). On the procedure: (§1) In one study, adherent cells were plated approximately 16-24 hours before the day of the experiment in 180 μl growth media. On the day of the experiment, the plated adherent cells were analyzed and counted and suspension cells were plated in 180 μl growth media. 10× lansoprazole compounds and vehicle was prepared. The 10× lansoprazole compounds were prepared by diluting lansoprazole to final concentrations of 100 μM, 30 μM, 10 μM, 3 μM, and 1 μM. A vehicle was prepared by preparing a solution of PBS, equivalent to the volume used for 10 μM lansoprazole wherein the 1× solution constitutes ˜0.06% PBS. 10 μl of the various 10× lansoprazole solutions and the vehicle were added to the cells. The cells were incubated at 37° C., 5% CO2 for 48 hours. The media was then aspirated. The cell suspension was then spun at 1500 RPM for 10 minutes. The media was slowly removed. 200 μl of MTT solution was added to each well with a concentration of 0.863 mg/ml MTT in the growth media. The cells were incubated at 37° C., 5% CO2 for 4 hours and the medium is then aspirated. The plate containing the cell suspension was then spun at 1500 RPM for 10 minutes. The media was slowly removed using a multichannel pipettor. 100 μl of DMSO was then added to each well. The cells were incubated at 37° C., 5% CO2 for 5 minutes and the absorbance was obtained at 560 nm using a Dynex Opsys MR plate reader. The cells used for this procedure were the following cell lines: IGROV1 (ovarian cancer); OVCAR 8 (ovarian cancer); ES-2 (ovarian cancer); CAOV3 (ovarian cancer); OVCAR5 (ovarian cancer); SUDHL4 (lymphoma); RPMI8226 (myeloma); RPMI6666 (Hodgkin's lymphoma); NC37 (lymphoma); GDM-1 (leukemia); MC/CAR (prostate cancer); DU-145 (prostate cancer), J45-01 (leukemia), MOLT3 (leukemia), HUT78, J-gamma-1 (leukemia), MCF7 […], COL0205 (colon cancer), HL60 CLONE 15 (leukemia), T47D (breast cancer), P116 (intestinal cancer), KU812 (leukemia), SW620 (colon cancer), MK92-M1 (lymphoma), MV-4-11 (leukemia), HS578T (breast cancer), HT29 (colon cancer), HCT 116 (colon cancer), CAKI-1 (kidney cancer), A549 (lung cancer), H460 (lung cancer), A3 (colon cancer), MDA-MB231 […], MALME 3M (melanoma), RXF393 (kidney cancer), RS4.11 (leukemia), PC3 (prostate cancer), OVCAR3 (ovarian cancer), MDA-MB435 (melanoma), HUT102 (lymphoma), HL60 (leukemia), CCRF-CEM (leukemia), HUT78 (lymphoma), 786-O (kidney cancer), ACHN (kidney cancer), A498 (kidney cancer), H226 (lung cancer), H522 (lung cancer), HOP92 (lung cancer), SNB 19 (brain cancer), OVCAR4 (ovarian cancer), H9 (lymphoma), UO-31 (kidney cancer), HH (lymphoma), DAUDI (leukemia), LOXIMVI (melanoma), NAMALWA (lymphoma), EKVX (lung cancer), DOHH2 (lymphoma), SNB75 (brain cancer), SKMEL28 (melanoma), SKMEL5 (melanoma), SKMEL2 (melanoma), M14 (melanoma), UACC 257 (melanoma), H332M (lung cancer), KM12 (colon cancer), HCC2998 (colon cancer), G401 (kidney cancer), RS1184 (lymphoma), MC116 (leukemia), MOLT4 (leukemia), JM1 (liver cancer), HOP-62 (lung cancer), HCT-15 (colon cancer), SF-539 (brain cancer), SF295 (brain cancer), ST486 (lymphoma), U251 (brain cancer), and UACC-62 (melanoma).
(§2) Experiments, as described in Example I were conducted with lansoprazole, omeprazole and SCH 28080 at concentrations of 1 μM, 10 μM, and 100 μM. FIGS. 3A-3K show the experimental results when tumor cells from the following cell lines were treated with lansoprazole, omeprazole, and SCH 28080: IGROV1 (FIG. 3A), OVCAR8 (FIG. 3B), ES-2 (FIG. 3C), CAOV3 (FIG. 3D), OVCAR5 (FIG. 3E), SUDHL4 (FIG. 3F), RPMI8226 (FIG. 3G), RPMI6666 (FIG. 3H), NC37 (FIG. 3I), GDM-1 (FIG. 3J), and MC/CAR (FIG. 3K).

Experiment [11] deals with MC/CAR (prostate cancer). The protocol:
as §1, §2

The test system of experiment [12] is NC37 (lymphoma). On the procedure:
as §1, §2

Experiment [13] deals with RPMI8226 (myeloma). On the procedure:
as §1, §2

Experiment [14] relates to SUDHL4 (lymphoma). On the procedure: as §1, §2

For the compound `Cc1c(OCC(F)(F)F)ccnc1C[S+]([O-])c1nc2ccccc2[nH]1` (stereo not shown) [lansoprazole], the “tumor cell growth reduction” value in experiment [1], in experiment [2], in [3], in experiment [4], in experiment [5] and in [6] was “significant tumor cell growth reduction” each time. The “tumor cell growth reduction” value in experiment [7] is “significant tumor cell growth reduction”; in experiment [8] it was “significant tumor cell growth reduction”; in experiment [9], “significant tumor cell growth reduction”; in experiment [10] (GDM-1 cells, lansoprazole 1-100 μM, 48 hours, MTT), “significant tumor cell growth reduction”; in experiment [11] (MC/CAR cells, lansoprazole 1-100 μM, 48 hours, MTT), “significant tumor cell growth reduction”; in experiment [12] (NC37 cells, lansoprazole 1-100 μM, 48 hours, MTT), “significant tumor cell growth reduction”. For the same compound, the “tumor cell growth reduction” value in experiment [13] (RPMI8226 cells, lansoprazole 1-100 μM, 48 hours, MTT) was “significant tumor cell growth reduction”; in [14] (SUDHL4 cells, lansoprazole 1-100 μM, 48 hours, MTT), “significant tumor cell growth reduction”. For the same compound, the “reducing tumor cell growth” value in experiment [10] (GDM-1 (FIG. 3J), 10 μM) is recorded as “effective in reducing tumor cell growth”; in experiment [11] (MC/CAR (FIG. 3K), 100 μM), “effective in reducing tumor cell growth”; in experiment [12] (NC37 (FIG. 3I), 100 μM), “effective in reducing tumor cell growth”; in [13] (RPMI8226 (FIG. 3G), 100 μM), “effective in reducing tumor cell growth”; in experiment [14] (SUDHL4 (FIG. 3F), 100 μM) it was “effective in reducing tumor cell growth”.
